Test results: patent US20250034136A1 (Nimbus Wadjet, Inc., priority 2023, published 2025)
Like-named read-outs stand apart in the source and are kept apart here.

Experiments:
[1] = molecular target: WRN (BV08), human Werner helicase (Uniprot Q14191, amino acids 517-1235 with L1074F point mutation) (Homo sapiens (Human), UniProt Q14191, L1074F); test: WRN (BV08) ADP-Glo assay; assay type: biochemical; conditions: class symbols A-E, read-out: ADP-Glo_hWRN_IC50
Protocol: Bovine skin gelatin (BSG), dimethyl sulfoxide (DMSO), Pluronic F-127 and tris(2-carboxyethyl)phosphine hydrochloride solution (TCEP) were purchased from Sigma-Aldrich (St. Louis, MO) at the highest level of purity possible. […] DNA strands were annealed by heating to 95° C. for 5 minutes followed by slow cooling to room temperature. Compounds in 100% DMSO (0.1 μl) were spotted into a 384-well white polystyrene Optiplate-384 (Perkin Elmer; Waltham, MA) assay plate using a LabCyte Echo 550 (Agilent; Santa Clara, CA). DMSO (0.1 μl) was added to columns 12, rows A-H and column 24, rows I-P for the maximum signal control. […] Compounds/DMSO were preincubated for 15 minutes at 25° C. with 5 μl 2×WRN (BV08), prepared as described below, in assay buffer containing 20 mM Bicine (pH=7.5), 1 mM MgCl2, 10 mM KCl, 0.1% Pluronic F-127, 0.005% BSG, 1 mM TCEP. The reaction was initiated by the addition of 5 μl 2× substrate mixture in assay buffer and incubated for 60 minutes at 25° C. The final concentrations of the assay components were 0.15 nM WRN, 5 μM ATP, and 0.1 nM DNA duplex. The final DMSO concentration was 1% and the reference compound concentration (NSC-617145) used for the minimal signal control was 20 μM. The reaction was stopped by the addition of the ADP-Glo Kit components (Promega; Madison, WI) as directed and the relative luminescence units (RLU) were read on an Envision 2104 (Perkin Elmer; Waltham, MA). % inhibition calculation:
[formula] • Where RLU=relative luminescence units, sample=signal in sample well, and MIN and MAX are the respective minimum and maximum signal controls.
[formula] • Where top and bottom are normally allowed to float but may be fixed at 100 or 0 respectively in a 3-parameter fit. Y is the % inhibition and X is the compound concentration.
Molecular Biology and virus production. […] The baculovirus from the expression plasmid WRN—BV08 was generated from transfection and amplification following the manufacturer's instructions.
Sf9 cells grown in SF900II media were infected with 1:200 WRN—BV08 P2 virus and incubated for protein expression for 72 h at 27° C. The WRN protein was purified using the following protocol. The cell pellets were thawed and resuspended in buffer A (50 mM Tris, pH 7.5, 500 mM NaCl, 1 mM TCEP, 10% Glycerol) supplemented with 0.5% CHAPS, 1 mM PMSF, 1 μg/ml Leupeptin, 1 μg/ml Pepstatin, and the Pierce Universal Nuclease and cocktail tablet. Cleared lysates were loaded onto a Ni Sepharose™ excel column and washed with buffer A and bound protein was eluted with buffer A supplemented with 300 mM imidazole. The eluted protein was dialyzed against buffer A and digested by His-tagged TEV (1:5 ratio) overnight at 4° C. ZnCl2 was added into the sample at final 15 μM before loading onto a second Ni Sepharose™ excel column. Untagged WRN protein was eluted from the column with buffer A supplemented with 20 mM imidazole, dialyzed overnight into buffer B (50 mM Tris, pH 7.5, 1 mM TCEP, 10% Glycerol) supplemented with 150 mM NaCl and loaded onto a Heparin column. Proteins were eluted with a step gradient of buffer B supplemented with 150 mM, 200 mM, 300 mM and 500 mM NaCl. WRN containing fractions were pooled and concentrated prior to loading on to size exclusion chromatography using a HiLoad 16/600 Superdex™ 200 pg column (GE Healthcare) in buffer C (20 mM HTEPES, pH 7.5, 250 mM NaCl, 0.25 mM TCEP, […]).

[2] = tested on: p21 induction in HCT116 cells; test: p21 induction in HCT116 cells; assay type: cell-based; conditions: HCT116 cells, 24 h compound incubation, read-out: P21_EC50
Protocol: The colon carcinoma cell line HCT116 was obtained from ATCC and cultured in growth medium consisting of Mccoy's 5A Medium (Gibco 16600108) supplemented with 10% FBS (Transgene FS201-02) and 100 units/mL penicillin-streptomycin (Gibco 15140122) and maintained at 37° C. under 5% CO2. On the day of seeding, 2,000 cells in 30 μL of culture media were plated per well to Poly-D-Lysine 384 Well Black Clear Plates (Biocoat 356663) and incubated overnight at 37° C. under 5% CO2. The following day, compounds were serially diluted in DMSO for a total of 11 test concentrations. […] Next, 150 nL of diluted compound was added in duplicate to the assay plate, using an Echo 655 (Labcyte). The plate was centrifuged at 500 RPM for 1 min and then incubated at 37° C. under 5% CO2 for 24 h. After 24 h, medium was removed, and cells were fixed by adding 40 μL of 4% paraformaldehyde solution to each well and incubated for 20 min at room temperature. The plate was then washed 4 times with 100 μL per well of wash buffer (PBS with 0.1% Tween-20) using a microplate washer. Next, 30 μL of ice-cold methanol was added to each well and the plate was incubated at −20° C. for 10 min. The plate was washed 4 times with 100 μL per well of wash buffer by a microplate washer, then 30 μL per well of blocking buffer (Intercept PBS blocking buffer (LI-COR 927-70001) with 0.05% Tween-20) was added and the plate was incubated at room temperature with shaking for 2 h. Next, to each test well, 20 μL of primary antibody solution (p21 Waf1/CIP (12D1) RabbitmAb (Cell Signaling Technologies 2947) diluted 1:1000 and GAPDH (D4C6R) Mouse mAb (Cell Signaling Technologies 97166) diluted 1:2000 in blocking buffer) was added and the plate was placed at 4° C., overnight. The following day, the plate was washed 5 times with 100 μL per well of wash buffer using a microplate washer for 5 min. 20 μL per well of secondary antibody (IRDye 680CW Goat anti-Mouse IgG (H+L) (LI-COR 926-68070) diluted 1: 2000 in Blocking Buffer and IRDye 800CW Goat anti-Rabbit IgG (H+L) (LI-COR 926-32211) diluted 1: 2000 in Blocking Buffer) was then added and the plate was stored for 2 h in the dark at room temperature with shaking. The plate was then washed 4 times with 100 μL per well of wash buffer again using a microplate washer. Finally, the p21 signal and the GAPDH signal were quantified using a LI-COR Odyssey CLx Imager machine reading at 800 nm and 700 nm, respectively. Each plate contained DMSO control (low control) and an internal reference WRN inhibitor (high control) respectively. […] EC50 values for each compound were generated after non-linear regression curve fitting using commercially available software.

Chain of WRN (BV08), human Werner helicase (Uniprot Q14191, amino acids 517-1235 with L1074F point mutation) (Q14191 other isoform, or with tags, fused parts or gaps L1074F (already in the parent)): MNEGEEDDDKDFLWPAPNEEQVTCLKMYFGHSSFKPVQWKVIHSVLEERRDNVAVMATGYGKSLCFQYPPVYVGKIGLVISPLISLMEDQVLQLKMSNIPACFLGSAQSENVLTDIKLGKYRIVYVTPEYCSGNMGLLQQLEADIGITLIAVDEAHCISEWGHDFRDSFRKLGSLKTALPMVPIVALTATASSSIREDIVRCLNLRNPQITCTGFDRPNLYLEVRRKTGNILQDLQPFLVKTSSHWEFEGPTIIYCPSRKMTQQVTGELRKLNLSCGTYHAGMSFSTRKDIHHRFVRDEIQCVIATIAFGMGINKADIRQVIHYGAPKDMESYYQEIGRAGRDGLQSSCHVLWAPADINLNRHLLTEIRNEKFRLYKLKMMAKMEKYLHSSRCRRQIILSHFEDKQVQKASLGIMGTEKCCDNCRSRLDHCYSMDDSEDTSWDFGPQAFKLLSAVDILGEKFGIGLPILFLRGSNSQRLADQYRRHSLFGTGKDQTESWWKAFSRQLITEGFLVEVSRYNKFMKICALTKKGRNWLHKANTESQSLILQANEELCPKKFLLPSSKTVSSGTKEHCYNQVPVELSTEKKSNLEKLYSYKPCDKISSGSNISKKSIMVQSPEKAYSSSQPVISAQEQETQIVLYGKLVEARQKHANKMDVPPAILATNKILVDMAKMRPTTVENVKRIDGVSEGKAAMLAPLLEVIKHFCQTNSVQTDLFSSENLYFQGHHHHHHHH

Row | Structure (SMILES) | IC50 [1] | EC50 ([2]; Homo sapiens, HCT-116, 24 h) | EC50 [2]
1 | CCc1c(N2CCN(C(=O)c3ncnc(C)c3O)[C@@H]3CC[C@H]32)c(=O)c2nc(N(C)C3CC3)cnc2n1CC(=O)Nc1ccc(C(F)(F)F)cc1Cl (single isomer, unassigned) [I-119, N-(2-chloro-4-(trifluoromethyl)phenyl)-2-(2-(cyclopropyl(methyl)amino)-6-ethyl-7-(5-(5-hydroxy-6-methylpyrimidine-4-carbonyl)-2,5-diazabicyclo[4.2.0]octan-2-yl)-8-oxopyrido[2,3-b]pyrazin-5(8H)-yl)acetamide] | 5 to 50 nM | < 500 nM | 
2 | CCc1c(N2CCN(C(=O)c3ncnc(C)c3O)[C@@H]3CC[C@H]32)c(=O)c2nc(N(C)C3CC3)cnc2n1CC(=O)Nc1ccc(C(F)(F)F)cc1Cl (single isomer, unassigned) [I-169, N-[2-chloro-4-(trifluoromethyl)phenyl]-2-{2-[cyclopropyl(methyl)amino]-6-ethyl-7-[-5-(5-hydroxy-6-methylpyrimidine-4-carbonyl)-2,5-diazabicyclo[4.2.0]octan-2-yl]-8-oxo-5H,8H-pyrido[2,3-b]pyrazin-5-yl}acetamide] | 5 to 50 nM |  | 500 to 2000 nM
3 | CCc1c(N2CCN(C(=O)c3ncnc(C)c3O)[C@H]3CC[C@@H]32)c(=O)c2nc(NC)cnc2n1CC(=O)Nc1ccc(C(F)(F)F)cc1Cl (single isomer, unassigned) [I-171, N-(2-chloro-4-(trifluoromethyl)phenyl)-2-(6-ethyl-7-(5-(5-hydroxy-6-methylpyrimidine-4-carbonyl)-2,5-diazabicyclo[4.2.0]octan-2-yl)-2-(methylamino)-8-oxopyrido[2,3-b]pyrazin-5(8H)-yl)acetamide] | 50 to 100 nM |  | > 5000 nM
4 | CCc1c(N2CCN(C(=O)c3ncnc(C)c3O)[C@@H]3CC[C@H]32)c(=O)c2nc(NC)cnc2n1CC(=O)Nc1ccc(C(F)(F)F)cc1Cl (single isomer, unassigned) [I-172, N-(2-chloro-4-(trifluoromethyl)phenyl)-2-(6-ethyl-7-(5-(5-hydroxy-6-methylpyrimidine-4-carbonyl)-2,5-diazabicyclo[4.2.0]octan-2-yl)-2-(methylamino)-8-oxopyrido[2,3-b]pyrazin-5(8H)-yl)acetamide] | ≤ 5 nM | < 500 nM | 
5 | CCc1c(N2CCN(C(=O)c3ncnc(C)c3O)C[C@@H]2C)c(=O)c2nc(N3CC[C@H]4C[C@H]43)cnc2n1CC(=O)Nc1ccc(C(F)(F)F)cc1Cl (single isomer, unassigned) [I-192] | ≤ 5 nM | < 500 nM | 
6 | CCc1c(N2CCN(C(=O)c3ncnc(C)c3O)[C@@H](C)[C@H]2C)c(=O)c2nc(N(C)C)cnc2n1CC(=O)Nc1ccc(C(F)(F)F)cc1Cl (single isomer, unassigned) [I-196, N-(2-chloro-4-(trifluoromethyl)phenyl)-2-(2-(dimethylamino)-6-ethyl-7-(4-(5-hydroxy-6-methylpyrimidine-4-carbonyl)-2,3-dimethylpiperazin-1-yl)-8-oxopyrido[2,3-b]pyrazin-5(8H)-yl)acetamide] | 5 to 50 nM | 500 to 2000 nM | 
7 | CCc1c(N2CCN(C(=O)c3ncnc(C)c3O)[C@H]3CCC[C@H]32)c(=O)c2nc(N(C)C)cnc2n1CC(=O)Nc1ccc(C(F)(F)F)cc1Cl (single isomer, unassigned) [I-208, N-(2-chloro-4-(trifluoromethyl)phenyl)-2-(2-(dimethylamino)-6-ethyl-7-(4-(5-hydroxy-6-methylpyrimidine-4-carbonyl)octahydro-1H-cyclopenta[b]pyrazin-1-yl)-8-oxopyrido[2,3-b]pyrazin-5(8H)-yl)acetamide] | 100 to 500 nM | > 5000 nM | 
8 | CCc1c(N2CCN(C(=O)c3ncnc(C)c3O)[C@@H]3CCC[C@@H]32)c(=O)c2nc(N(C)C)cnc2n1CC(=O)Nc1ccc(C(F)(F)F)cc1Cl (single isomer, unassigned) [I-209, N-(2-chloro-4-(trifluoromethyl)phenyl)-2-(2-(dimethylamino)-6-ethyl-7-(4-(5-hydroxy-6-methylpyrimidine-4-carbonyl)octahydro-1H-cyclopenta[b]pyrazin-1-yl)-8-oxopyrido[2,3-b]pyrazin-5(8H)-yl)acetamide] | 5 to 50 nM | < 500 nM | 
9 | CCc1c(N2CCN(C(=O)c3ncnc(C)c3O)[C@H]3CC[C@@H]32)c(=O)c2nc(N3CC[C@H]4C[C@H]43)cnc2n1CC(=O)Nc1ccc(C(F)(F)F)cc1Cl (single isomer, unassigned) [I-219] | ≤ 5 nM | < 500 nM | 
10 | CCc1c(N2CCN(C(=O)c3ncnc(C)c3O)[C@H]3CC[C@@H]32)c(=O)c2nc(N3CC[C@@H]4C[C@@H]43)cnc2n1CC(=O)Nc1ccc(C(F)(F)F)cc1Cl (single isomer, unassigned) [I-220] | ≤ 5 nM | < 500 nM | 
11 | CCc1c(N2CCN(C(=O)c3c(OC)ncc(C)c3O)C[C@@H]2C)c(=O)c2nc(N3CC[C@H]4C[C@H]43)cnc2n1CC(=O)Nc1ccc(C(F)(F)F)cc1Cl (single isomer, unassigned) [I-231] | 5 to 50 nM | < 500 nM | 
12 | CCc1c(N2CCN(C(=O)c3c(OC)ncc(C)c3O)C[C@@H]2C)c(=O)c2nc(N3CC[C@@H]4C[C@@H]43)cnc2n1CC(=O)Nc1ccc(C(F)(F)F)cc1Cl (single isomer, unassigned) [I-232] | 5 to 50 nM | < 500 nM | 
